We go through 1 compound from patent EP4389746A2, “P2X3 RECEPTOR ANTAGONISTS” (Recordati Industria Chimica E Farmaceutica SPA, priority 2022, dated 2024).

pIC50: −log10 of the molar value.

Data set [1] concerns C57BL/6J mice. Kind of data set: Scratching model: inhibition of ATP induced pruritus in mouse. It counts as in vivo. On the procedure:
(§1) C57BL/6J mice, Hartley Guinea pigs and Sprague-Dawley Rats from Charles River Italy were used in the experiments. Animals were housed with free access to food and water and maintained on a forced 12 hr light-dark cycle at 22-24°C for at least one week before the experiments were carried out. The animals were handled according to internationally accepted principles for care of laboratory animals (Directive 2010/63/EU of the European Parliament and of the Council of 22 September 2010).
"Scratchng model" - Inhibition of ATP induced pruritus in mouse
Mice were shaved at the rostral back the day before injection. The day of the experiment, an intradermal injection of the irritant agent α,β-meATP 200 µg/50 µL (Sigma, Italy) into the skin was performed. The hind limb scratching behavior directed toward the injection site, was recorded. One bout was defined as the lifting of the hindlimb toward the injection site and then placing the limb back on the floor. The number of bouts were counted for a period of 30 minutes. The Example 22 compound investigated was injected intraperitoneally 30 min before the administration of the irritant agent. (Fig. 2)
In the scratching model the results are presented as mean ± SEM of the values. Statistical analysis was performed using one-way ANOVA and Dunnet's test for multiple comparisons. The ED35 of the tested compounds was determined by linear regression analysis of bouts (Graphpad v5).

The subject of data set [2] is Hartley Guinea pigs. Kind of data set: Cough model: inhibition of citric acid induced cough in guinea pig. It counts as in vivo. The following applies: intraperitoneally 30 min before nebulization of citric acid 0.4 M, compared with vehicle (Fig. 3). On the procedure:
as §1
"Cough model" - Inhibition of citric acid induced cough in guinea pig
Conscious guinea pigs were placed in the transparent chamber of the whole-body plethysmograph (EMKA) and allowed to move freely. The number of coughs was registered by the IOX2 software for 10 minutes during and 10 minutes after the nebulization of citric acid 0.4 M. Example 22 was injected intraperitoneally 30 min before the nebulization of citric acid. (see Fig. 3) In cough model the results are presented as mean ± SEM of the values. Statistical analysis was performed using one-way ANOVA and Dunnet's test for multiple comparisons.

The target in data set [3] is T1, human P2X3 receptor (Homo sapiens, UniProt P56373).
T1 construct: expressed in transfected cells; host or cells: CHO-K1
T1 sequence (P56373 1-397): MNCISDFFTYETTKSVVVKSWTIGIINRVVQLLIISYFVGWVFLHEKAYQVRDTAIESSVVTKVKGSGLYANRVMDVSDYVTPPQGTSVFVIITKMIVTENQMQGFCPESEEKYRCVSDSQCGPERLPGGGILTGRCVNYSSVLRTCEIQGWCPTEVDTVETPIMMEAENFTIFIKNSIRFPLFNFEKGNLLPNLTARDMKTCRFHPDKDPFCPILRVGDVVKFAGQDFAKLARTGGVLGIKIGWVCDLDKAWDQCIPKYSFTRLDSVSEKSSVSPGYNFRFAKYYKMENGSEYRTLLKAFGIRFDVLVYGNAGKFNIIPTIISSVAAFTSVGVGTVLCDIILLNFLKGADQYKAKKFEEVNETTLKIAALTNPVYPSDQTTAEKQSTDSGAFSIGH
In words: Calcium luminescence measurement: human P2X3 receptor activity inhibition (CHO-K1 cells, photoprotein readout, FLEXSTATION). It is filed as cell-based. The following applies: CHO-K1 cells co-expressing human P2X3 and Ca2+ sensitive photoprotein; agonist α,β-Met-ATP; read-out: h-P2X3 IC50.

The test system of data set [4] is Sprague-Dawley Rats. In words: Two bottle taste test in rats: dysgeusia effect of P2X3 antagonists. It counts as in vivo. The following applies: rats water fasted overnight; bottles presented 30 minutes after treatment for 15 minutes (Fig. 4). Here is the method: as §1
(Fig 3) "Two bottle taste test" in rats - Dysgeusia effect of P2X3 antagonists
Rats were water fasted overnight. The day of the experiment the animals were treated with tested compounds and 30 minutes later two bottles were presented for 15 minutes, the first one containing water and the second bottle containing Quinine, a substance showing a bitter taste. The volume of liquid drunk in 15 minutes from each bottle was recorded and expressed as percentage of preference (Fig.4). Statistical analysis was performed on absolute values (mean ± SEM) using one-way ANOVA and Tukey's test for multiple comparisons.

Consider `CC(C)C1C(=O)N=C2c3ncc(N4CCOCC4)cc3N(Cc3ccc(Cl)cc3)C(=O)N21` (racemic) [Example 22, 6-[(4-Chlorophenyl)methyl]-8-(morpholin-4-yl)-3-(propan-2-yl)imidazo[1,2-c]pyrido[2,3-e]pyrimidine-2,5(3H,6H)-dione], for which, in data set [1] (dose inhibiting the 35% of number of bouts, intraperitoneally 30 min before α,β-meATP 200 µg/50 µL intradermal, bouts counted for 30 minutes), the “ED35” value came out at 10.62 mg/kg. The number of bouts entry in data set [1] (intraperitoneally 30 min before α,β-meATP, vs vehicle group (Fig. 2)) was “reduce the number of bouts significantly and in a dose-related manner”. Also, in data set [2], the number of coughs result was “significantly reduced the number of coughs both during and after the nebulization of citric acid”. Also, the pIC50 in data set [3] was 7.43. Also, the “preference between water and Quinine” value in data set [4] is given as “showed a clear preference for water in comparison to Quinine”.
